Experimental data taken from ChEMBL document CHEMBL4477239 (Bioorg Med Chem, 2016).

Tests used:
in vitro = conditions: human, Caco-2
Description: Apparent permeability from apical to basolateral side in Caco2 cells at 1 to 10 uM incubated for 90 mins by LC-MS/MS analysis

[1] = Intrinsic clearance in rat liver microsomes assessed per mg of protein at 1 uM preincubated for 5 mins followed by NADPH addition measured after 5 to 30 mins by LC-MS/MS analysis; format: ADME, Microsome; conditions: read-out: CLH
NCI-H1993 = assay: Cytotoxicity against human NCI-H1993 cells assessed as growth inhibition after 72 hrs by CCK-8 assay; conditions: NCI-H1993, 72 h
[2] = Intrinsic clearance in human liver microsomes assessed per mg of protein at 1 uM preincubated for 5 mins followed by NADPH addition measured after 5 to 30 mins by LC-MS/MS analysis; format: ADME, Microsome; conditions: read-out: CLH
Cytochrome P450 2C9 = Cytochrome P450 2C9 (Homo sapiens, UniProt P11712); assay: Inhibition of CYP2C9 in human liver microsomes at 10 uM using sulfaphenazole as […] preincubated for 5 mins followed by NADPH addition measured after 20 mins by LC-MS/MS analysis; format: ADME
Cytochrome P450 3A4 [3] = target: T1, Cytochrome P450 3A4 (Homo sapiens, UniProt P08684); assay: Time-dependent inhibition of CYP3A4 in human liver microsomes at 10 uM using troleandomycin as […] preincubated with compound followed by NADPH addition by LC-MS/MS analysis; format: ADME
Cytochrome P450 2D6 [4] = target: T2, Cytochrome P450 2D6 (Homo sapiens, UniProt P10635); assay: Time-dependent inhibition of CYP2D6 in human liver microsomes at 10 uM using paroxetine as […] preincubated with compound followed by NADPH addition by LC-MS/MS analysis; format: ADME
Cytochrome P450 1A2 [5] = target: T3, Cytochrome P450 1A2 (Homo sapiens, UniProt P05177); assay: Time-dependent inhibition of CYP1A2 in human liver microsomes at 10 uM using furafylline as […] preincubated with compound followed by NADPH addition by LC-MS/MS analysis; format: ADME
T3 sequence (P05177 whole entry): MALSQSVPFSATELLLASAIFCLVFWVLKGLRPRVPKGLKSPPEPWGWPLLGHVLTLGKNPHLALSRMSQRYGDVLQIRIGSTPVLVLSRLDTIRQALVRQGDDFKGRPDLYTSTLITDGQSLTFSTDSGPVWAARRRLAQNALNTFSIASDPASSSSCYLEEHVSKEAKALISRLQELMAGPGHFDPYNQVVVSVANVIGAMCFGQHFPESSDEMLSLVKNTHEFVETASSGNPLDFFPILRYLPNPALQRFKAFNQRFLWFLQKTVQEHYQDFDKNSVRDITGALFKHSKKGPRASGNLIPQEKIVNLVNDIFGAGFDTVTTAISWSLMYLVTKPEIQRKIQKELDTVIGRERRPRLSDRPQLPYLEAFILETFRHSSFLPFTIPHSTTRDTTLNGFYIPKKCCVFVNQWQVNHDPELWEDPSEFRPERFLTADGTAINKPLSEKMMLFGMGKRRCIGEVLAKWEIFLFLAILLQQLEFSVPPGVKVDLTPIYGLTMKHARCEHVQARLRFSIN

[6] = Apparent permeability from basolateral to apical side in Caco2 cells at 1 to 10 uM incubated for 90 mins by LC-MS/MS analysis; format: ADME, cell-based; conditions: human, Caco-2
[7] = Efflux ratio of permeability from basolateral to apical side over apical to basolateral side in Caco2 cells at 1 to 10 uM incubated for 90 mins by LC-MS/MS analysis; format: ADME, cell-based; conditions: human, Caco-2
[8] = target: Tyrosine-protein kinase receptor UFO (Homo sapiens, UniProt P30530); assay: Inhibition of human AXL
[9] = target: Macrophage-stimulating protein receptor (Homo sapiens, UniProt Q04912); assay: Inhibition of human RON
[10] = target: ALK tyrosine kinase receptor (Homo sapiens, UniProt Q9UM73); assay: Inhibition of human ALK
[11] = target: Vascular endothelial growth factor receptor 1 (Homo sapiens, UniProt P17948); assay: Inhibition of human FLT1
[12] = target: Vascular endothelial growth factor receptor 2 (Homo sapiens, UniProt P35968); assay: Inhibition of human VEGFR2
[13] = target: Mast/stem cell growth factor receptor Kit (Homo sapiens, UniProt P10721); assay: Inhibition of human c-Kit
[14] = target: Platelet-derived growth factor receptor alpha (Homo sapiens, UniProt P16234); assay: Inhibition of human PDGFRalpha
[15] = target: Platelet-derived growth factor receptor beta (Homo sapiens, UniProt P09619); assay: Inhibition of human PDGFRbeta
[16] = target: Proto-oncogene tyrosine-protein kinase receptor Ret (Homo sapiens, UniProt P07949); assay: Inhibition of human RET
[17] = target: Epidermal growth factor receptor (Homo sapiens, UniProt P00533); assay: Inhibition of human EGFR
[18] = target: Epidermal growth factor receptor (Homo sapiens, UniProt P00533, T790M); assay: Inhibition of human EGFR T790M mutant
[19] = target: Receptor tyrosine-protein kinase erbB-4 (Homo sapiens, UniProt Q15303); assay: Inhibition of human ERBB4
[20] = target: Proto-oncogene tyrosine-protein kinase Src (Homo sapiens, UniProt P12931); assay: Inhibition of human c- SRC
[21] = target: Tyrosine-protein kinase ABL1 (Homo sapiens, UniProt P00519); assay: Inhibition of human ABL
Ephrin type-A receptor 2 = Ephrin type-A receptor 2 (Homo sapiens, UniProt P29317); assay: Inhibition of human EPHA2
Ephrin type-B receptor 2 = Ephrin type-B receptor 2 (Homo sapiens, UniProt P29323); assay: Inhibition of human EPHB2
[22] = target: Insulin-like growth factor 1 receptor (Homo sapiens, UniProt P08069); assay: Inhibition of human IGF1R
[23] = target: Fibroblast growth factor receptor 1 (Homo sapiens, UniProt P11362); assay: Inhibition of human FGFR1
[24] = target: Hepatocyte growth factor receptor (Homo sapiens, UniProt P08581)
Description: Inhibition of c-Met kinase (unknown origin) assessed as decrease in phosphorylation of TK substrate-biotin peptide preincubated for 5 to 10 mins followed by ATP addition measured after 30 mins by HTRF assay

Cytochrome P450 2D6 [25] = target: T2, Cytochrome P450 2D6; assay: Inhibition of CYP2D6 in human liver microsomes at 10 uM using quinidine as […] preincubated for 5 mins followed by NADPH addition measured after 20 mins by LC-MS/MS analysis; format: ADME
Cytochrome P450 2C19 = Cytochrome P450 2C19 (Homo sapiens, UniProt P33261); assay: Inhibition of CYP2C19 in human liver microsomes at 10 uM using tranylcypromine as […] preincubated for 5 mins followed by NADPH addition measured after 20 mins by LC-MS/MS analysis; format: ADME
Cytochrome P450 3A4 [26] = target: T1, Cytochrome P450 3A4; assay: Inhibition of CYP3A4 in human liver microsomes at 10 uM using ketoconazole as […] preincubated for 5 mins followed by NADPH addition measured after 20 mins by LC-MS/MS analysis; format: ADME
Cytochrome P450 1A2 [27] = target: T3, Cytochrome P450 1A2; assay: Inhibition of CYP1A2 in human liver microsomes at 10 uM using naphthoflavone as […] preincubated for 5 mins followed by NADPH addition measured after 20 mins by LC-MS/MS analysis; format: ADME

T2 sequence (P10635 whole entry): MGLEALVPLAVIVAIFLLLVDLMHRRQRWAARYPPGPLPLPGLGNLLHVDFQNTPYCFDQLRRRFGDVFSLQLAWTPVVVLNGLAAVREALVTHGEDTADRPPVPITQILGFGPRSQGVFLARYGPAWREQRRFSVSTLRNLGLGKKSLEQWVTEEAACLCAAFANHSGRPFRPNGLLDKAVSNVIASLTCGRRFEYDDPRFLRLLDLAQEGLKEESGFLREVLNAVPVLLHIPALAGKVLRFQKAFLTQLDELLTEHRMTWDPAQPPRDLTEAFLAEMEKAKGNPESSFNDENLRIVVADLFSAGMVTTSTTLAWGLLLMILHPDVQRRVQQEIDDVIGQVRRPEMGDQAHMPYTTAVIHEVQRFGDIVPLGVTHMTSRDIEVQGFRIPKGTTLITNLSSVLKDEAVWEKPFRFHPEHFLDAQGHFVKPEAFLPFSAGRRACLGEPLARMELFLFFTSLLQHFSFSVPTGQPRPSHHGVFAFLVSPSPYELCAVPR
T1 sequence (P08684 whole entry): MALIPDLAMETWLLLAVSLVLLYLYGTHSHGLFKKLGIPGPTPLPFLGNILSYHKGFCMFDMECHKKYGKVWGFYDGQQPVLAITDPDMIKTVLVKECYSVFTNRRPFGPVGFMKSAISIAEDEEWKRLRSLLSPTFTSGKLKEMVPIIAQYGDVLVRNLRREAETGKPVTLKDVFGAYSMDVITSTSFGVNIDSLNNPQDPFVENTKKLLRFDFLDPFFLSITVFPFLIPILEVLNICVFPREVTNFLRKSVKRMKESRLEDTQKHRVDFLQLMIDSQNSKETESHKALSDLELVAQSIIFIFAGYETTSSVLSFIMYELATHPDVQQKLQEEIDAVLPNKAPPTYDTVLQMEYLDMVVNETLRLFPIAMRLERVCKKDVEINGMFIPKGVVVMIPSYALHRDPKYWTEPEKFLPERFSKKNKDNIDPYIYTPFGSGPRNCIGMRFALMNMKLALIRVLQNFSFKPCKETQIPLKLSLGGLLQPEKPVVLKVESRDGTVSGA
Chain of Cytochrome P450 2C9 (P11712 whole entry): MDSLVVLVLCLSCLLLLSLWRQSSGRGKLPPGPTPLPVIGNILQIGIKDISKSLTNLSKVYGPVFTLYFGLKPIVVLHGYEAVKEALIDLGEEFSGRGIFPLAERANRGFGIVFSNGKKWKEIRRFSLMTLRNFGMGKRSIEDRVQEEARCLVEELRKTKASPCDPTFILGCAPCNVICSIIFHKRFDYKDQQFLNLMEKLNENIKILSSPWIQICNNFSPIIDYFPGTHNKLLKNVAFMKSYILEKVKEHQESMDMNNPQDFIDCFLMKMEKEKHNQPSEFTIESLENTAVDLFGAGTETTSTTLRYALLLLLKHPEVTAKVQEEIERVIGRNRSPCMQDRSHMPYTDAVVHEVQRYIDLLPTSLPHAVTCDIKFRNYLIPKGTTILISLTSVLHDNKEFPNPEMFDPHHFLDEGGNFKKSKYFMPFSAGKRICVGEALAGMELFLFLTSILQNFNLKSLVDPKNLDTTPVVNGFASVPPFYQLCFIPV
Chain of Cytochrome P450 2C19 (P33261 whole entry): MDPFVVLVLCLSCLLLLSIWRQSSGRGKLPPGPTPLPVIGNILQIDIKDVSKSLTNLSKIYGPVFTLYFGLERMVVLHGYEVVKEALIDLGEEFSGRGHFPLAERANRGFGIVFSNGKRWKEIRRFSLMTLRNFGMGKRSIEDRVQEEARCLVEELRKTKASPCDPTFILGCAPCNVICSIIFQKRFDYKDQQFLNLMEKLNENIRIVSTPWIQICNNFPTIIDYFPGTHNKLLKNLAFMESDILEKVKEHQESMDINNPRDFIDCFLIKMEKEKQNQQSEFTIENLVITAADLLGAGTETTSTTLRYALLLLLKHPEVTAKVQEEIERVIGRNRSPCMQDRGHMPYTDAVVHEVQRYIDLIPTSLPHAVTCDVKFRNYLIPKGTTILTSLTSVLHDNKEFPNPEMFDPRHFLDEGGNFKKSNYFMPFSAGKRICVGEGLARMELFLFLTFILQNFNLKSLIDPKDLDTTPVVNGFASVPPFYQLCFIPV
Chain of Hepatocyte growth factor receptor (P08581 whole entry): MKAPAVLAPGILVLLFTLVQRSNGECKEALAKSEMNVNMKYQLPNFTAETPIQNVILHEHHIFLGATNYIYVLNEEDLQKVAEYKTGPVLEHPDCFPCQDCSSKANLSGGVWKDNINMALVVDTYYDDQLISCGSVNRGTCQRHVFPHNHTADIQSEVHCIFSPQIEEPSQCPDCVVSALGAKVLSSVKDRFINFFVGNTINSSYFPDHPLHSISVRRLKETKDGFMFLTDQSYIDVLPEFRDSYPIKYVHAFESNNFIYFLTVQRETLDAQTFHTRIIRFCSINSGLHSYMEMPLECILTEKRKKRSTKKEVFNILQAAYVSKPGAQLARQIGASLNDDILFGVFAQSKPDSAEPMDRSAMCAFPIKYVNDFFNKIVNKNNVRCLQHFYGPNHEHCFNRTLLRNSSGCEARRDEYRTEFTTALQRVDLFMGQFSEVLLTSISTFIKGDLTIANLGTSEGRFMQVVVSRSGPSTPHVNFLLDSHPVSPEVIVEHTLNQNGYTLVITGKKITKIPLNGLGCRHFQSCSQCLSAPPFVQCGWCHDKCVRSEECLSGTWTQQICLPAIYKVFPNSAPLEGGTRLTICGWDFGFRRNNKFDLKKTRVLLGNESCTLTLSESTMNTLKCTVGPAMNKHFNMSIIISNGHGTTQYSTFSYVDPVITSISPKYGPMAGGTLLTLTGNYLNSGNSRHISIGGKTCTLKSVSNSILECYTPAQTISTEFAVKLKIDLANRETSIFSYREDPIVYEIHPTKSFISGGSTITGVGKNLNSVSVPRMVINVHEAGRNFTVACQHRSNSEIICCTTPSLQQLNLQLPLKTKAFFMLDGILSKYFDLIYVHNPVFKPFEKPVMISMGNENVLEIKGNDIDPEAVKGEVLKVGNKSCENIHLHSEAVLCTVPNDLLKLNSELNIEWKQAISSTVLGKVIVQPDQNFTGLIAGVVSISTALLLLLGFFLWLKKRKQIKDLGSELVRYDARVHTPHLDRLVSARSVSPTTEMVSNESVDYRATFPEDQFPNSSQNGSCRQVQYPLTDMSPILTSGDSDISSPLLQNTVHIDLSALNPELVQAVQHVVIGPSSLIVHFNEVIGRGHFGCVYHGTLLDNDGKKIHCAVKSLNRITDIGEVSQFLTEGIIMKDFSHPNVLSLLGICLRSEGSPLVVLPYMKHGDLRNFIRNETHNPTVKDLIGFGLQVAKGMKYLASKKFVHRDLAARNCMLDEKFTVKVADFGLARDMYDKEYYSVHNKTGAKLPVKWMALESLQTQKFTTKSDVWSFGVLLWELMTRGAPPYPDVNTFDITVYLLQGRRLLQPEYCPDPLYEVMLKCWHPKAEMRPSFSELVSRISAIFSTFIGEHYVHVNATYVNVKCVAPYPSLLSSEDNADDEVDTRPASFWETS
Chain of Macrophage-stimulating protein receptor (Q04912 25-304 limits assumed): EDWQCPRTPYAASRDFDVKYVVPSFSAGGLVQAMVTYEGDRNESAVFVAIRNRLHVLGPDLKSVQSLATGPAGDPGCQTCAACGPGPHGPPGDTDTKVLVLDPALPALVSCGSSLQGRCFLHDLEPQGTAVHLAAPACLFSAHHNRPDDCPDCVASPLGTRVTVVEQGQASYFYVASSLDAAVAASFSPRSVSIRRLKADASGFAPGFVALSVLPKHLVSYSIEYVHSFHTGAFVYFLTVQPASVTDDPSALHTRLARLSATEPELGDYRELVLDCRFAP
Chain of Macrophage-stimulating protein receptor (Q04912 310-1400 limits assumed): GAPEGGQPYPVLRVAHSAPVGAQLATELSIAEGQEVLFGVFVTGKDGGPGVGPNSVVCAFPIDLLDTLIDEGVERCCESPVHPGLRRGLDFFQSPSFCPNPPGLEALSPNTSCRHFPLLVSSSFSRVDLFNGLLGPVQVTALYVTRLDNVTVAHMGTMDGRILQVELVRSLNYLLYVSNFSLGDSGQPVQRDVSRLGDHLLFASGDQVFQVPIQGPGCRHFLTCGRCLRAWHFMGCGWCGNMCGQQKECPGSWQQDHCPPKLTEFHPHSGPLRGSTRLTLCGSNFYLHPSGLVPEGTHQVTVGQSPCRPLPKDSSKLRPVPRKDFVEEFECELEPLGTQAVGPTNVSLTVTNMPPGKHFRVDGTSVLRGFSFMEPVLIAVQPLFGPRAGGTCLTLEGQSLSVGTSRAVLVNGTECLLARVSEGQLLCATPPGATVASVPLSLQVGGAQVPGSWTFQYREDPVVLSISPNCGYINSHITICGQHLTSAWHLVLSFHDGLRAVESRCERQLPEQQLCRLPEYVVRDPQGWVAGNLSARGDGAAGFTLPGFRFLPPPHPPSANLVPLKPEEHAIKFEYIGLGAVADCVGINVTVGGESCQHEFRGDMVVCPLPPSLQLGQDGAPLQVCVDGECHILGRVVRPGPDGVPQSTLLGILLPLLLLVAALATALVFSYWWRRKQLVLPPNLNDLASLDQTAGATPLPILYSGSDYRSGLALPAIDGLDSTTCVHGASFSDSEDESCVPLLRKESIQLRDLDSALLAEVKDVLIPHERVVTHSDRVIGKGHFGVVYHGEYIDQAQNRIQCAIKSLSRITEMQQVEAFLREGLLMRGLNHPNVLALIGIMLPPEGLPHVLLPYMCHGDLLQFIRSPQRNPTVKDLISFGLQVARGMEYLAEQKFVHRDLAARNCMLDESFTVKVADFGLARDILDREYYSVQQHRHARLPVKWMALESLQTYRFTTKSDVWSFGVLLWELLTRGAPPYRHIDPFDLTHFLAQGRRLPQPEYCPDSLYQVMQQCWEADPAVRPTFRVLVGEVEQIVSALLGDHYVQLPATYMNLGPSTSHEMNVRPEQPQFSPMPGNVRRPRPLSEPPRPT

Compound | Papp A→B at 1.5 h, 10 µM (in vitro) [×10⁻⁶ cm/s] | microsomal CLint at 1 µM [1] [µL/min/mg] | microsomal CLint at 1 µM [2] [µL/min/mg] | inhibition (INH) (Cytochrome P450 2C9) | inhibition (INH) (Cytochrome P450 3A4 [3]) | inhibition (INH) (Cytochrome P450 2D6 [4]) | inhibition (INH) (Cytochrome P450 1A2 [5]) | Papp B→A at 1.5 h [6] [×10⁻⁶ cm/s] | efflux ratio at 1.5 h [7] | IC50 [24] [nM] | inhibition (INH) (Cytochrome P450 2C19) | inhibition (INH) (Cytochrome P450 3A4 [26]) | IC50 (NCI-H1993) [nM] | other results
C[C@@H](c1cc2cccnc2cc1F)n1cnc2ncc(-c3cnn(C)c3)nc21 | 46.6 | 49 | 8 | Active | Not Active | Not Active | Not Active | 48.6 | 1.04 | 1.45 | – | – | 24.7 | IC50 [8]: > 30000 nM; IC50 [9]: > 30000 nM; IC50 [10]: > 30000 nM; IC50 [11]: > 30000 nM; IC50 [12]: 20600 nM; IC50 [13]: > 30000 nM; IC50 [14]: 27600 nM; IC50 [15]: 26200 nM; IC50 [16]: > 30000 nM; IC50 [17]: > 30000 nM; IC50 [18]: > 30000 nM; IC50 [19]: > 30000 nM; IC50 [20]: > 30000 nM; IC50 [21]: > 30000 nM; IC50 (Ephrin type-A receptor 2): > 30000 nM; IC50 (Ephrin type-B receptor 2): > 30000 nM; IC50 [22]: > 30000 nM; IC50 [23]: > 30000 nM
CC(c1c(F)cc2ncccc2c1F)n1cnc2ncc(-c3cnc4ccccc4c3)nc21 (configuration not stated) | – | 275 | 51 | Active | Active | Active | Active | – | – | 1.3 | Active | – | 46.1 | inhibition (INH) (Cytochrome P450 2D6 [25]): Active
COC(=O)c1ccc(-c2cnc3ncn(C(C)c4c(F)cc5ncccc5c4F)c3n2)cc1F (configuration not stated) | – | 179 | 290 | Active | Not Active | Not Active | Not Active | – | – | 4.9 | – | – | 29.4 | –
C[C@@H](c1cc2cccnc2cc1F)n1cnc2ncc(-c3ccc(C(N)=O)c(F)c3)nc21 | 43.7 | 131 | 23 | Active | Not Active | – | – | 47.9 | 1.1 | 1.32 | – | Active | 11.8 | –
CC(c1c(F)cc2ncccc2c1F)n1cnc2ncc(-c3ccncc3)nc21 (configuration not stated) | – | 77 | 14 | Active | Not Active | Not Active | Not Active | – | – | 1.6 | Active | Active | 162 | –
COC(=O)c1ccc(-c2cnc3ncn(C(C)c4cc5cccnc5cc4F)c3n2)cc1F (configuration not stated) | – | 125 | 73 | Active | Not Active | Not Active | Not Active | – | – | 2.9 | – | – | 60.2 | –
CC(c1cc2cccnc2cc1F)n1cnc2ncc(-c3ccc(C(N)=O)c(F)c3)nc21 (configuration not stated) | 82.3 | 85 | 14 | Active | Not Active | Not Active | Not Active | 81.4 | 0.99 | 1.7 | – | – | 19.5 | –

Continued, in another order:

Papp A→B at 1.5 h, 10 µM (in vitro) [×10⁻⁶ cm/s] | microsomal CLint at 1 µM [1] [µL/min/mg] | microsomal CLint at 1 µM [2] [µL/min/mg] | inhibition (INH) (Cytochrome P450 2C9) | inhibition (INH) (Cytochrome P450 3A4 [3]) | inhibition (INH) (Cytochrome P450 2D6 [4]) | inhibition (INH) (Cytochrome P450 1A2 [5]) | Papp B→A at 1.5 h [6] [×10⁻⁶ cm/s] | efflux ratio at 1.5 h [7] | IC50 [24] [nM] | inhibition (INH) (Cytochrome P450 2C19) | inhibition (INH) (Cytochrome P450 3A4 [26]) | Compound | IC50 (NCI-H1993) [nM] | other results
2.72 | – | – | – | – | – | – | – | – | – | – | – | O=C1OC2(c3ccc([O-])cc3Oc3cc([O-])ccc32)c2ccccc21.[Na+].[Na+] | – | –
– | 63 | 11 | Active | Not Active | Not Active | Not Active | – | – | 1 | Active | – | CC(c1c(F)cc2ncccc2c1F)n1cnc2ncc(-c3cnn(C)c3)nc21 (configuration not stated) | 35.5 | –
39.3 | 18 | 9 | Not Active | Not Active | Not Active | Not Active | 40.1 | 1.02 | 1.6 | Not Active | Not Active | CC(c1cc2cccnc2cc1F)n1cnc2ncc(-c3cnn(C)c3)nc21 (configuration not stated) | 31.3 | inhibition (INH) (Cytochrome P450 2D6 [25]): Not Active; inhibition (INH) (Cytochrome P450 1A2 [27]): Not Active
39.8 | 85 | 16 | Active | Active | – | – | 39.5 | 0.99 | 2.3 | Active | Active | CNC(=O)c1ccc(-c2cnc3ncn(C(C)c4cc5cccnc5cc4F)c3n2)cc1F (configuration not stated) | 32.7 | inhibition (INH) (Cytochrome P450 2D6 [25]): Active
1.46 | – | – | – | – | – | – | 3.3 | 2.27 | – | – | – | CC(=O)O[C@H]1C(=O)[C@@]2(C)[C@H]([C@H](OC(=O)c3ccccc3)[C@]3(O)C[C@H](OC(=O)[C@H](O)[C@@H](NC(=O)c4ccccc4)c4ccccc4)C(C)=C1C3(C)C)[C@]1(OC(C)=O)CO[C@@H]1C[C@@H]2O [PACLITAXEL] | – | –
21.5 | – | – | – | – | – | – | – | – | – | – | – | CC(C)NCC(O)COc1cccc2ccccc12 (configuration not stated) [PROPRANOLOL] | – | –
